In PubChem BioAssay (NCI) one finds TGI and GI50 data, which are given here for 5 molecules.

Among the test systems are RPMI-8226 leukemia; CCRF-CEM leukemia; HT29 colon; TK-10 renal; A498 renal; SK-MEL-28 melanoma; OVCAR-3 ovarian; HOP-92 NSCLC; RXF 393 renal; ACHN renal.
What all share (test): DTP human tumour cell line panel, 48 h

Where “and” joins values, the source holds several entries; their conditions need not be identical. Identical values can stand only once.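 Interpolation was linear, between the two tested concentrations surrounding the appropriate level; five concentrations were tested over 48 hours in 96-well plates. The concentration for 50% growth inhibition is given as GI50. TGI: total growth inhibition.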

Consider `O=C1/C(=c2\c3ccccc3n3c(=O)c4ccccc4nc23)Nc2ccccc21`, for which the TGI with RPMI-8226 leukemia, with CCRF-CEM leukemia, in the experiment with HT29 colon, with TK-10 renal, with A498 renal and in the experiment on SK-MEL-28 melanoma was more than 100 µM each time. The TGI in the experiment with OVCAR-3 ovarian, in the experiment on HOP-92 NSCLC, in the experiment with RXF 393 renal and in the experiment on ACHN renal was more than 100 µM in each case.
For `COc1cc([C@@H]2c3cc4c(cc3[C@H](O)[C@H]3COC(=O)[C@@H]23)OCO4)cc(OC)c1OC`, the GI50 in the experiment with RPMI-8226 leukemia was 0.566 µM and 0.3 µM; in the experiment on CCRF-CEM leukemia it was 0.374 µM and 0.302 µM; in the experiment on HT29 colon, 0.36 µM and 0.104 µM; in the experiment with TK-10 renal, 0.743 µM; with A498 renal, 0.239 µM and 0.451 µM; in the experiment with SK-MEL-28 melanoma, 0.561 µM and 0.374 µM. Besides, the GI50 with OVCAR-3 ovarian was 0.303 µM and 0.159 µM; in the experiment on RXF 393 renal, 0.211 µM and 0.316 µM; with ACHN renal, 0.568 µM and 1.41 µM. In addition, the TGI is > 10 µM and 1.37 µM in the experiment on RPMI-8226 leukemia; more than 100 µM in the experiment on CCRF-CEM leukemia; > 3.94 µM and 1.06 µM in the experiment on HT29 colon; 9.86 µM in the experiment with TK-10 renal; more than 100 µM with SK-MEL-28 melanoma; 1.53 µM and 0.371 µM in the experiment on OVCAR-3 ovarian. The TGI is more than 88.6 µM with HOP-92 NSCLC and more than 100 µM with ACHN renal.
In the case of `COc1cc2c3c(n(CCCN4CCOCC4)c(=O)c2cc1OC)-c1cc2c(cc1C3=O)OCO2`, the GI50 in the experiment with RPMI-8226 leukemia is 0.608 µM; in the experiment on CCRF-CEM leukemia, 0.0934 µM; in the experiment on HT29 colon, 5.62 µM; in the experiment on TK-10 renal, 34.6 µM; with A498 renal, 7.53 µM; with SK-MEL-28 melanoma, more than 76.9 µM. Besides, the GI50 was 15.6 µM with OVCAR-3 ovarian, 3.21 µM with HOP-92 NSCLC and 0.5 µM in the experiment with ACHN renal. Further, the TGI with RPMI-8226 leukemia was 16.8 µM; in the experiment on CCRF-CEM leukemia it was 3.34 µM; in the experiment with HT29 colon, more than 67 µM; in the experiment with TK-10 renal, more than 94.3 µM; with A498 renal, 54 µM; in the experiment with SK-MEL-28 melanoma it was more than 100 µM. The TGI in the experiment with OVCAR-3 ovarian was more than 50.7 µM; in the experiment with HOP-92 NSCLC it was more than 91.5 µM; in the experiment on RXF 393 renal, more than 66.6 µM; with ACHN renal, more than 100 µM.
Take `N#Cc1ccccc1/C=N/O`: the TGI was more than 66.7 µM in the experiment with RPMI-8226 leukemia; more than 85 µM with CCRF-CEM leukemia; more than 100 µM in the experiment with HT29 colon; more than 100 µM in the experiment with TK-10 renal; more than 100 µM in the experiment with A498 renal; more than 100 µM with SK-MEL-28 melanoma. Further, the TGI with OVCAR-3 ovarian, in the experiment with HOP-92 NSCLC, in the experiment on RXF 393 renal and in the experiment with ACHN renal was more than 100 µM in each case.
Regarding `COc1ccc(C2SC(C)C(=O)N2NC(=O)C(O)c2ccccc2)cc1` (stereo unspecified), the GI50 in the experiment on RPMI-8226 leukemia, in the experiment on CCRF-CEM leukemia, in the experiment on HT29 colon, with TK-10 renal, in the experiment on A498 renal and in the experiment with SK-MEL-28 melanoma was more than 100 µM in each case. For the same molecule, the GI50 with OVCAR-3 ovarian, in the experiment with HOP-92 NSCLC, in the experiment on RXF 393 renal and in the experiment with ACHN renal was more than 100 µM each time. Also, the TGI in the experiment on RPMI-8226 leukemia, with CCRF-CEM leukemia, in the experiment on HT29 colon, in the experiment with TK-10 renal, in the experiment with A498 renal and with SK-MEL-28 melanoma was more than 100 µM each time. The TGI with OVCAR-3 ovarian, in the experiment on HOP-92 NSCLC, with RXF 393 renal and in the experiment on ACHN renal was more than 100 µM throughout.

Usually TGI stands for the concentration at which net growth stops. The low end stands for more potent growth arrest, the high end for less potent growth arrest. The GI50 is the concentration giving 50% growth inhibition.
